According to ChEMBL document CHEMBL5465560, “Selectivity Literature for EUbOPEN Chemogenomic Library” (2024):

What was measured:
[1] = target: Protein kinase C beta type (Homo sapiens, UniProt P05771); assay: Selectivity interaction (Kinase panel (Z-LYTE Assay)) EUB0001632a PRKCB; details: at 10 µM
[2] = target: Serine/threonine-protein kinase WNK3 (Homo sapiens) (UniProt Q9BYP7); assay: Selectivity interaction (KinomeScan (DiscoverX)) EUB0000666a WNK3; details: at 10 µM
[3] = target: Tyrosine-protein kinase ABL1 (Homo sapiens, UniProt P00519); assay: Selectivity interaction (Kinase panel (literature)) EUB0001199aCl ABL1; details: at 1 µM
[4] = target: Proto-oncogene tyrosine-protein kinase ROS (Homo sapiens) (UniProt P08922); assay: Selectivity interaction (Kinase screening (Nanosyn)) EUB0000604a ROS1
[5] = target: Casein kinase I isoform gamma-3 (Homo sapiens) (UniProt Q9Y6M4); assay: Selectivity interaction (KinomeScan (DiscoverX)) EUB0001079a CSNK1G3; details: at 1 µM
[6] = target: Ribosomal protein S6 kinase alpha-6 (Homo sapiens, UniProt Q9UK32); assay: Selectivity interaction (KinomeScan (DiscoverX)) EUB0001079a RPS6KA6; details: at 1 µM
[7] = target: Wee1-like protein kinase 2 (Homo sapiens) (UniProt P0C1S8); assay: Selectivity interaction (KinomeScan (DiscoverX)) EUB0000229b WEE2; details: at 10 µM
[8] = target: T1, Mitogen-activated protein kinase kinase kinase 3 (Homo sapiens) (UniProt Q99759); assay: Selectivity interaction (KinomeScan (DiscoverX)) EUB0000229b MAP3K3; details: at 10 µM
T1 sequence (whole entry): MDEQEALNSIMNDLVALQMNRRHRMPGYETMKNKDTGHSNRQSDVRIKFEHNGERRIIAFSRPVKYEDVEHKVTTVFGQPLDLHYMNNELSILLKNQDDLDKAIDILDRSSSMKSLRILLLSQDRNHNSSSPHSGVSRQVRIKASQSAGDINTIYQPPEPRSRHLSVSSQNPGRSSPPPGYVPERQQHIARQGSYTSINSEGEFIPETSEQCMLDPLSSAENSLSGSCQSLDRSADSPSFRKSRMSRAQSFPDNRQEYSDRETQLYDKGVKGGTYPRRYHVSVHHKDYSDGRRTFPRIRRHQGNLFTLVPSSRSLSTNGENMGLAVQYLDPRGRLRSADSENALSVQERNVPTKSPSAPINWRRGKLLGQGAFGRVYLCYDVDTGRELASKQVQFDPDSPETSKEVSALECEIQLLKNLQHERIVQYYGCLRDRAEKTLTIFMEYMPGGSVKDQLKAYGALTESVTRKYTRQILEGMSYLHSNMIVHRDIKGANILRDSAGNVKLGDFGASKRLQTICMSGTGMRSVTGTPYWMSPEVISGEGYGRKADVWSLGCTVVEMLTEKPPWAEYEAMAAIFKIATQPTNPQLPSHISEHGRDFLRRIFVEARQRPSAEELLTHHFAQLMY

[9] = test system: Phosphatidylinositol 4,5-bisphosphate 3-kinase catalytic subunit alpha isoform (Homo sapiens), P42336 [I800L]; details: at 10 µM
[10] = target: Mitogen-activated protein kinase 3 (Homo sapiens, UniProt P27361); assay: Selectivity interaction (KinomeScan (DiscoverX)) EUB0001619a MAPK3; details: at 1 µM
[11] = target: T2, Bone morphogenetic protein receptor type-2 (Homo sapiens) (UniProt Q13873); assay: Selectivity interaction (KinomeScan (DiscoverX)) EUB0001619a BMPR2; details: at 1 µM
T2 sequence (whole entry): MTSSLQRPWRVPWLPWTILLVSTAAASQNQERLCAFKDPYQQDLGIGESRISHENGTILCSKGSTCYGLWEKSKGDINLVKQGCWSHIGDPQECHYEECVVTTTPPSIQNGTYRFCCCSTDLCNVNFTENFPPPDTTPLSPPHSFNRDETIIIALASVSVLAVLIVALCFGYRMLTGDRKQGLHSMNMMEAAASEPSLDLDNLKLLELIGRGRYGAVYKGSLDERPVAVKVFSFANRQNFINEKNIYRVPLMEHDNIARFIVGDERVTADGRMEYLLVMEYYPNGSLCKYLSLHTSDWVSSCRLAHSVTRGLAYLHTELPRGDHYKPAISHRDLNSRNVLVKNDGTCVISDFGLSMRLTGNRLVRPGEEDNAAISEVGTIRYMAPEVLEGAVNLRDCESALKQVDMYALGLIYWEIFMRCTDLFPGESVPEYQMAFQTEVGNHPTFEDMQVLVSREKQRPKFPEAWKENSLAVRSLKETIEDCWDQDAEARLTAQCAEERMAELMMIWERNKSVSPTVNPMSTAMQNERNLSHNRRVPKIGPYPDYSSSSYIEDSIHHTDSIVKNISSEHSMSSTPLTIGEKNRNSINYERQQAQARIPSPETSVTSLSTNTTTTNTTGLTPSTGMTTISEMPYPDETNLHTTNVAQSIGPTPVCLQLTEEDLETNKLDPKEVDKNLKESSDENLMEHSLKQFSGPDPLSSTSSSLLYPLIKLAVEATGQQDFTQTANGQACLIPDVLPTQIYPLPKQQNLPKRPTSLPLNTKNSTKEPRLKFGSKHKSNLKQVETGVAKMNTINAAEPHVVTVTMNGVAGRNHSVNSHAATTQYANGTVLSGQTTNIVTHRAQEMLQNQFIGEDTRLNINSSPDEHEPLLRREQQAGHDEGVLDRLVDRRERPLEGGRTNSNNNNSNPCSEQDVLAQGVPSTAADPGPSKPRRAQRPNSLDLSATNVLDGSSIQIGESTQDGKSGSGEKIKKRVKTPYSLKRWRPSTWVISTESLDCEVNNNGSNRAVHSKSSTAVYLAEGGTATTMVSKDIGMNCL

[12] = target: T3, Dual specificity tyrosine-phosphorylation-regulated kinase 2 (Homo sapiens) (UniProt Q92630); assay: Selectivity interaction (KinomeScan (DiscoverX)) EUB0001619a DYRK2; details: at 1 µM
T3 sequence (whole entry): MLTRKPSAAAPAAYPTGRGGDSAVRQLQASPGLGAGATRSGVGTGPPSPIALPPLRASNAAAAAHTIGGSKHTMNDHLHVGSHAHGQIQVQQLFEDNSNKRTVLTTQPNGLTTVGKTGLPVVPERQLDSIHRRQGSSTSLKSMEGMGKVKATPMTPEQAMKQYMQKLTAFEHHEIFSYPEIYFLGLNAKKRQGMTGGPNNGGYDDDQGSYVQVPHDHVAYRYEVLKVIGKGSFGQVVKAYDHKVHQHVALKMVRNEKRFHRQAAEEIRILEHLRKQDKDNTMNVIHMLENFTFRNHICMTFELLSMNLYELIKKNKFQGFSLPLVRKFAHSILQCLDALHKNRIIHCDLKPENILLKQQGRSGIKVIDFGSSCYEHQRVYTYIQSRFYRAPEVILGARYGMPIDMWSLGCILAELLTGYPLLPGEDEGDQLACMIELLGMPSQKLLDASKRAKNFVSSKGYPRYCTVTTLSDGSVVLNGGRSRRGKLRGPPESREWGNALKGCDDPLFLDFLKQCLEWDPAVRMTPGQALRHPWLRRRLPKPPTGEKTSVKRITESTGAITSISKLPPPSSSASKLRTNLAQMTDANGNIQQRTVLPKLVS

Phosphatidylinositol 4,5-bisphosphate 3-kinase catalytic subunit alpha isoform (Homo sapiens), P42336 [I800L], sequence (P42336 whole entry I800L, canonical isoform): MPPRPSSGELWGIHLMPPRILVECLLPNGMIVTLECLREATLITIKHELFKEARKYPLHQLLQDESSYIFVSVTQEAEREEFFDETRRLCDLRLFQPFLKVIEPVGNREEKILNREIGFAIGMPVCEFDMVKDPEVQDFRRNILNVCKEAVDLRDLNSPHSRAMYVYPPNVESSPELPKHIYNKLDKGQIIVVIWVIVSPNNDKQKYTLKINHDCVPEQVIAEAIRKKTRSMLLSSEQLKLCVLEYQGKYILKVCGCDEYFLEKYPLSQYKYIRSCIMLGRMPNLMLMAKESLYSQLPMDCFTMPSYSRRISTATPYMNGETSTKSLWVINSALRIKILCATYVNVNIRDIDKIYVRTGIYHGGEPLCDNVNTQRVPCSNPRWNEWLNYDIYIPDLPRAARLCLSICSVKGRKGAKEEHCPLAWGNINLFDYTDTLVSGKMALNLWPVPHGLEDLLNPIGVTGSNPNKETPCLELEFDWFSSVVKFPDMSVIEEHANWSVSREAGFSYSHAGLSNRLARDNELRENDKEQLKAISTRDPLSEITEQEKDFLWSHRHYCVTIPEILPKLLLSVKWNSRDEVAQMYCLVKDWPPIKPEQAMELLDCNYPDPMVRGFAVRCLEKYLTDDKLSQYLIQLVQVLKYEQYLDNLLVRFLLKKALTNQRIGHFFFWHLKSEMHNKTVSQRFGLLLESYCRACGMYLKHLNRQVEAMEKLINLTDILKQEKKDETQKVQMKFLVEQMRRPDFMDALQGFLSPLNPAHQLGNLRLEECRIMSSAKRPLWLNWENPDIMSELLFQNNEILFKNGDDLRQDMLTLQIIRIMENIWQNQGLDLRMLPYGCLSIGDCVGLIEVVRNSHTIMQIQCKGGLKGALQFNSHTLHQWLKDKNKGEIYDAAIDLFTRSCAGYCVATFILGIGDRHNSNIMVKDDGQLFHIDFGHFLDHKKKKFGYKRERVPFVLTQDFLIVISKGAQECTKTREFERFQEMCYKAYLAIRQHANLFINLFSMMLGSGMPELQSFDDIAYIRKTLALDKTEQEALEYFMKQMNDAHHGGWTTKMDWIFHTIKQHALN
Casein kinase I isoform gamma-3 (Homo sapiens), sequence (Q9Y6M4 whole entry, looked up, canonical isoform): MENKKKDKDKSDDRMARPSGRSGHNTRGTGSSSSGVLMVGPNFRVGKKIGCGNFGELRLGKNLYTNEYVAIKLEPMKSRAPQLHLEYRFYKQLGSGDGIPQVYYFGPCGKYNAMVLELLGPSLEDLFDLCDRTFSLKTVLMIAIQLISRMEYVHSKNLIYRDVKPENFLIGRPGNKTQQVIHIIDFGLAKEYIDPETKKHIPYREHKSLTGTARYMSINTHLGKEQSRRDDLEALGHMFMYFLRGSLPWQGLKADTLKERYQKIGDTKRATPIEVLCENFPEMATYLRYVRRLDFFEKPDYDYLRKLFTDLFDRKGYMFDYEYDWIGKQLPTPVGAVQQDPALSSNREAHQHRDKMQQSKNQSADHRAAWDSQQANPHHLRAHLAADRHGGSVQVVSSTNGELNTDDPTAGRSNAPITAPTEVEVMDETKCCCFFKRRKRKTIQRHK
Protein kinase C beta type, sequence (P05771 2-671 limits assumed): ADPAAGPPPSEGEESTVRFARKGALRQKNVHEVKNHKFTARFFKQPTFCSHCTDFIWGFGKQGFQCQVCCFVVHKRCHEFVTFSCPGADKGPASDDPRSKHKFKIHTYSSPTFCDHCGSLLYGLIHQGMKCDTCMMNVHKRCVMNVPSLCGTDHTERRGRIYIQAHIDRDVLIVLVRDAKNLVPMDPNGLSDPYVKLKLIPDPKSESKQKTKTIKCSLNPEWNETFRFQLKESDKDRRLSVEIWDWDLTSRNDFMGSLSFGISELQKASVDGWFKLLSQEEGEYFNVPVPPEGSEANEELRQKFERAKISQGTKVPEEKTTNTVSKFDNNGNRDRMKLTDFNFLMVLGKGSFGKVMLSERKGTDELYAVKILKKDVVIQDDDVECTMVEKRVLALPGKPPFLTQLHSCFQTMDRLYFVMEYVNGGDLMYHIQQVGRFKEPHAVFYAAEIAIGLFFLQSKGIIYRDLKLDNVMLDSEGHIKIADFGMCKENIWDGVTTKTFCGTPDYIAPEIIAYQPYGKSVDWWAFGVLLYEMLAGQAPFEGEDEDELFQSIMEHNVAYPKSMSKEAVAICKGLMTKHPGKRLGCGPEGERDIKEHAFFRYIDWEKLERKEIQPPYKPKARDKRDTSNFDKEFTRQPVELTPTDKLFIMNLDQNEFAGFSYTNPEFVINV
Serine/threonine-protein kinase WNK3 (Homo sapiens), sequence (Q9BYP7 whole entry): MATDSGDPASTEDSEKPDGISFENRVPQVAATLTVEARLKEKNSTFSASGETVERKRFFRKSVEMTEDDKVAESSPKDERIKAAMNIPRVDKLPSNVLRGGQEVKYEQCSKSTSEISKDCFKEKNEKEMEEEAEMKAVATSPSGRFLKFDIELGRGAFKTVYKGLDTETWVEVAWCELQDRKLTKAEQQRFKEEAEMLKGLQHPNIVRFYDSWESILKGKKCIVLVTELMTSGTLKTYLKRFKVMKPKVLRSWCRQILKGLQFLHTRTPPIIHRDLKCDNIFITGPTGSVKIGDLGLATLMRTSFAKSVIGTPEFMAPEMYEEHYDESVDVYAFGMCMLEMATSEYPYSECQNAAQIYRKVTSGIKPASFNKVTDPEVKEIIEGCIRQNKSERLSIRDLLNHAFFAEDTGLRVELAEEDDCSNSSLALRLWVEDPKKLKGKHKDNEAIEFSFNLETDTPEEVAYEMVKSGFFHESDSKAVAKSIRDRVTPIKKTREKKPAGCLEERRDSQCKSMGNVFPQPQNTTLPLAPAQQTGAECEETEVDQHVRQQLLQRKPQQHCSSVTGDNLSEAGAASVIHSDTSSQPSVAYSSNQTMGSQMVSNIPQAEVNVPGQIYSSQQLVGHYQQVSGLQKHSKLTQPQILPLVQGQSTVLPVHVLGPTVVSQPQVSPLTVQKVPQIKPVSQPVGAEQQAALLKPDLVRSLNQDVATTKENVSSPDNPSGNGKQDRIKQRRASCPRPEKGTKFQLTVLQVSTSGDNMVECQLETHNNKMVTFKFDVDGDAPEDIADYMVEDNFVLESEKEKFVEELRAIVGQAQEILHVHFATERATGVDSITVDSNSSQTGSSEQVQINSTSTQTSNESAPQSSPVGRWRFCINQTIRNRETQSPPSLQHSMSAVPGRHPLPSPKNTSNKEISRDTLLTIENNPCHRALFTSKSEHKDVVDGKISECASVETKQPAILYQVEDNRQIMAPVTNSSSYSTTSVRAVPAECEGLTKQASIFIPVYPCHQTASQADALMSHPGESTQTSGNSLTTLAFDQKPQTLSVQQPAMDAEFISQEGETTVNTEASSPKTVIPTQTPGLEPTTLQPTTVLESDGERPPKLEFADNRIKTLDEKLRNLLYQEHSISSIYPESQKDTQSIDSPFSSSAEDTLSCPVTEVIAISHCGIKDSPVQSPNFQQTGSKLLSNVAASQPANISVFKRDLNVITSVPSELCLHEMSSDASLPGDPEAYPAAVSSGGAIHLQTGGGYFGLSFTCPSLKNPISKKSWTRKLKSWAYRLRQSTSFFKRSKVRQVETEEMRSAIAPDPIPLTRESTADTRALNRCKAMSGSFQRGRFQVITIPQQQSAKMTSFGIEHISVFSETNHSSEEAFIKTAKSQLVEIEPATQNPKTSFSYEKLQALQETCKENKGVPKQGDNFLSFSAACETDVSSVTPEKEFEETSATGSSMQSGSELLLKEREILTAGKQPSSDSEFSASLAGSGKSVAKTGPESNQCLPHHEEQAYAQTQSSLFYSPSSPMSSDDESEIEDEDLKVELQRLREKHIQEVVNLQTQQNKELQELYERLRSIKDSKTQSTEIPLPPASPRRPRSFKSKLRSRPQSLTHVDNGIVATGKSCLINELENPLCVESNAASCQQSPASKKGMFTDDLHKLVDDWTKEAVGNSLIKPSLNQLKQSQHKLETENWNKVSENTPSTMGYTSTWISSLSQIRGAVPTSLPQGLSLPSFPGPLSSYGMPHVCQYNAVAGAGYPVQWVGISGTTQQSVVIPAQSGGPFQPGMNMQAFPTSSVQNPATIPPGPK
Wee1-like protein kinase 2 (Homo sapiens), sequence (P0C1S8 whole entry, looked up): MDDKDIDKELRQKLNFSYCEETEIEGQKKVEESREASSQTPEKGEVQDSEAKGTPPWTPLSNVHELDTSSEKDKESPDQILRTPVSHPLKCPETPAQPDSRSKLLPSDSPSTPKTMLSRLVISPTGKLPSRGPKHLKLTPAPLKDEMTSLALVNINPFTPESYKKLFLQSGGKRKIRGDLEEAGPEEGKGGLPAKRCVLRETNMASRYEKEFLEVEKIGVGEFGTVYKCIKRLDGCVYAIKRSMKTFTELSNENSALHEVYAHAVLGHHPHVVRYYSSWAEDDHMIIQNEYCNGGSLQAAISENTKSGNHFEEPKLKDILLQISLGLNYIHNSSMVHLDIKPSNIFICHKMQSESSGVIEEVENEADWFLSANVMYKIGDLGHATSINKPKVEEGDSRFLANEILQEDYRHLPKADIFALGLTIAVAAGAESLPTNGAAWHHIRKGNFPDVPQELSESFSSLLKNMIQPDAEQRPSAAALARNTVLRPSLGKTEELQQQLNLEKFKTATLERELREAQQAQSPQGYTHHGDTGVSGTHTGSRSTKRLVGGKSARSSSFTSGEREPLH
Mitogen-activated protein kinase 3, sequence (P27361 whole entry): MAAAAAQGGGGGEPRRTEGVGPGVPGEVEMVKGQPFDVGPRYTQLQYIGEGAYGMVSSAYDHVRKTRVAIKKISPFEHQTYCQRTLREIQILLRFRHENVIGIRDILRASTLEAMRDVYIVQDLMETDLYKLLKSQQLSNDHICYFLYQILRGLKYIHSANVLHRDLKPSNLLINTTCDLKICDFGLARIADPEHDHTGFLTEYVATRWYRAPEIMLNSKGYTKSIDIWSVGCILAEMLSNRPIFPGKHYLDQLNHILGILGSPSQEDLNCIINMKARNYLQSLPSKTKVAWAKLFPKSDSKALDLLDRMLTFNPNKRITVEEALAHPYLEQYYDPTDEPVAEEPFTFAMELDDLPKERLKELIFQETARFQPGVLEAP

Structure (SMILES): Cn1cc(-n2cnc3c(NCc4nc5cc(Cl)c(Cl)cc5[nH]4)nc(N4CCOCC4)nc32)cn1
- % of control [1]: 15.6%

Structure (SMILES): O=C(NOC[C@H](O)CO)c1ccc(F)c(F)c1Nc1ccc(I)cc1F
- % of control [2]: 100%

Structure (SMILES): CN1Cc2nccc(-c3cn(C)nc3-c3ccc(F)cc3)c2C1=O
- % of inhibition [3]: 1%

Structure (SMILES): Cc1cnc(Nc2ccc(F)cc2Cl)nc1-c1c[nH]c(C(=O)N[C@H](CO)c2cccc(Cl)c2)c1
- % of inhibition [4]: 3%

Structure (SMILES): Nc1cnc(N2CCc3cc(S(=O)(=O)Nc4c(F)cc(Cl)cc4F)cc(N4CCCC4=O)c32)nc1 [TP-020n]
- % of control [5]: 78%
- % of control [6]: 100%

Structure (SMILES): COc1cc(N(C)c2ccnc3ccc(C(F)(F)F)cc23)cc(OC)c1OC
- % binding [7]: 87%
- % binding [8]: 89%

Structure (SMILES): CCC(=O)N1CCN(c2ccc(-n3c(=O)ccc4cnc5ccc(-c6cnc7ccccc7c6)cc5c43)cc2C(F)(F)F)CC1
- % of control [9]: 0%

Structure (SMILES): N#Cc1cccc(-c2c[nH]c3ncnc(N4CCOCC4)c23)c1
- % of control [10]: 87%
- % of control [11]: 80%
- % of control [12]: 92%
